Molecules are shown by their SMILES. Where two headings read alike, the source gives them in different places.

The target in experiment [1] is wild type PRC2 (wtPRC2) complex (Homo sapiens (Human), UniProt O75530). As to the kind of experiment: EED LC-MS assay. The format is biochemical. On the procedure:
EED LC-MS Assay Representative compounds of the present invention were serially and separately diluted 3-fold in DMSO to obtain a total of eight or twelve concentrations. […] A 6 μL solution of 3 μM of the peptide substrate H3K27Me0 (histone H3[21-44]-biotin) in reaction buffer was added to initiate each reaction. […] The data were then fit to a dose response equation using the program Helios to get the IC50 values of the test compound.

The next experiment addresses EED (1-441)-His protein (Homo sapiens (Human), UniProt O75530). The experiment in a line: EED-H3K27Me3 peptide competition binding assay by AlphaScreen. The settings on record: EED Alphascreen binding Qualified assay.
In experiment [2] the test system is H3K27 methylation in G401 cell. The experiment in a line: ELISA (H3K27 methylation) assay. It is filed as cell-based. The note with it: Homo sapiens, G-401, ELISA Qualified assay, 48 h, read-out: (c) IC50. The method, boiled down: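 G401 cells given 3-fold serial dilutions (eight or twelve points, top 20 μM) for 48 h. Lysate ELISA for H3K27 methylation normalized to H3 signal, % inhibition versus DMSO, IC50 from dose-response fit.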

The mark [3] stands for this setting: EED LC-MS Qualified assay, read-out: (b) IC50.

Chain of wild type PRC2 (wtPRC2) complex (O75530 whole entry): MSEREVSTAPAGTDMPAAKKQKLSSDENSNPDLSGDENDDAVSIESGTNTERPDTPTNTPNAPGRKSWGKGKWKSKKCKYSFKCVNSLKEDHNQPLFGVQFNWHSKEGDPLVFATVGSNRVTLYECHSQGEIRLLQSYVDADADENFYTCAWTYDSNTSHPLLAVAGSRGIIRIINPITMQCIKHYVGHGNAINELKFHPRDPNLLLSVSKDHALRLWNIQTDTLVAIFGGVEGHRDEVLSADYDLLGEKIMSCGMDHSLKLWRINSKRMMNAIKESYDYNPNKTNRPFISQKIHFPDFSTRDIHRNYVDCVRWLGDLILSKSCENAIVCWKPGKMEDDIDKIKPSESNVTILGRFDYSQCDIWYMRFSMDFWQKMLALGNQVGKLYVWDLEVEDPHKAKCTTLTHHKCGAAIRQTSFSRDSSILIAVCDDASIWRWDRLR
Chain of wild type PRC2 (wtPRC2) complex (Q15910 whole entry partner): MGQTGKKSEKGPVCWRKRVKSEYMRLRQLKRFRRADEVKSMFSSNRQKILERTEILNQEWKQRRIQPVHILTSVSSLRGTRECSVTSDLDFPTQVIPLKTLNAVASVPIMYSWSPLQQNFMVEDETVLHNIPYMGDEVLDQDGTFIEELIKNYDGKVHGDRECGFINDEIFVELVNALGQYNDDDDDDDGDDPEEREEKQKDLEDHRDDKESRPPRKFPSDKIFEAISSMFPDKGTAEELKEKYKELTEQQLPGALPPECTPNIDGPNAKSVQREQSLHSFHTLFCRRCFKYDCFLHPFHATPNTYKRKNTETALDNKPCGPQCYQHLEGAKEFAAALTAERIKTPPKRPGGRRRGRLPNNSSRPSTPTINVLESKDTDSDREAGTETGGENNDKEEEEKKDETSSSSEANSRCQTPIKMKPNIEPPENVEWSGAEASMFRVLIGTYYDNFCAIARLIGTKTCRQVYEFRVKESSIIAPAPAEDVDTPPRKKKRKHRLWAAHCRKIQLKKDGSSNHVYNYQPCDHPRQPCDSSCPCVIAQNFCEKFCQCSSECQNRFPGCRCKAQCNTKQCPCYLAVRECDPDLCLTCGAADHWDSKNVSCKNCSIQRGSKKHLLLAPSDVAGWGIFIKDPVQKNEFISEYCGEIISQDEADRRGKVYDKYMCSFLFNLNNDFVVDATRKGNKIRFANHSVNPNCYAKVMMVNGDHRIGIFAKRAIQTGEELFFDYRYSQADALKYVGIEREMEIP
Chain of wild type PRC2 (wtPRC2) complex (Q15022 whole entry partner): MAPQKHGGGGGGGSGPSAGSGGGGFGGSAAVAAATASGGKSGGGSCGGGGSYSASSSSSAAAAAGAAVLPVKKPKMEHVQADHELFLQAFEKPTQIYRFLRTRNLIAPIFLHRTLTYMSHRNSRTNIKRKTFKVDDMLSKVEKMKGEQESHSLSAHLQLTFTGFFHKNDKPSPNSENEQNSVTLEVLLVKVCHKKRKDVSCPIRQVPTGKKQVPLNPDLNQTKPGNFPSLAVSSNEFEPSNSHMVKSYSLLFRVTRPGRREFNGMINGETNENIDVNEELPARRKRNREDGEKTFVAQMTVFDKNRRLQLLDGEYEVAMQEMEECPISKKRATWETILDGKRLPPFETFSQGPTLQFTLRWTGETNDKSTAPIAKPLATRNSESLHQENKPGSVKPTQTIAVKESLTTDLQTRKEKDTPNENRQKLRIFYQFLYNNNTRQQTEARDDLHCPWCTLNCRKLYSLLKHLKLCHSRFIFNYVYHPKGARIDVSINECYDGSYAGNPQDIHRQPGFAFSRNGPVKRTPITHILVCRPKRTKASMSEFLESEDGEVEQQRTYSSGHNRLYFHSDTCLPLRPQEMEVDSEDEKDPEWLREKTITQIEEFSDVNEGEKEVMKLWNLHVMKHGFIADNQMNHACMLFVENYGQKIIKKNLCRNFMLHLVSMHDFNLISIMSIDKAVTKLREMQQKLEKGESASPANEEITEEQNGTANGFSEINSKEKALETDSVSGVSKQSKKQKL
Chain of EED (1-441)-His protein (O75530 whole entry): as the sequence (O75530 whole entry) above

Regarding `Cc1ncccc1-c1ncn2c(NCc3c(F)ccc4c3CCO4)ncc(-c3ccc(S(C)(=O)=O)cc3)c12` [Example 112, N-((5-fluoro-2,3-dihydrobenzofuran-4-yl)methyl)-1-(2-methylpyridin-3-yl)-8-(4-(methylsulfonyl)phenyl)imidazo[1,5-c]pyrimidin-5-amine], the IC50 in experiment [1] (setting [3]) is 12.1 nM; on EED (1-441)-His protein it was 10.5 nM; in experiment [2], 13.1 nM.

Regarding `Cc1ccc(-c2ncn3c(NCc4c(F)ccc5c4CCO5)ncc(-c4cnc(C)nc4C)c23)c(C)n1` [Example 113, 1-(2,6-dimethylpyridin-3-yl)-8-(2,4-dimethylpyrimidin-5-yl)-N-((5-fluoro-2,3-dihydrobenzofuran-4-yl)methyl)imidazo[1,5-c]pyrimidin-5-amine], the IC50 in experiment [1] (setting [3]) amounted to 38.9 nM; on EED (1-441)-His protein it was 15.2 nM; in experiment [2], 53.1 nM.

In the case of `Cc1ccc(-c2ncn3c(NCc4c(F)ccc5c4CCO5)ncc(-c4cnc(C)nc4C)c23)cn1` [Example 114, 8-(2,4-dimethylpyrimidin-5-yl)-N-((5-fluoro-2,3-dihydrobenzofuran-4-yl)methyl)-1-(6-methylpyridin-3-yl)imidazo[1,5-c]pyrimidin-5-amine], the figures for the IC50 (in experiment [1] (setting [3]); at EED (1-441)-His protein; in experiment [2]) were 31.9 nM, 8.4 nM and 22.8 nM, respectively.

Take `Cc1ccc(-c2ncn3c(NCc4c(F)ccc5c4CCO5)ncc(-c4cccnc4C)c23)cn1` [Example 115, N-((5-fluoro-2,3-dihydrobenzofuran-4-yl)methyl)-8-(2-methylpyridin-3-yl)-1-(6-methylpyridin-3-yl)imidazo[1,5-c]pyrimidin-5-amine]: the IC50 was 17.6 nM in experiment [1] (setting [3]), 6.2 nM on EED (1-441)-His protein and 4 nM in experiment [2].

On to `Cc1ncccc1-c1cnc(NCc2c(F)ccc3c2CCO3)n2cnc(C#C[Si](C)(C)C)c12` [Example 116, N-((5-fluoro-2,3-dihydrobenzofuran-4-yl)methyl)-8-(2-methylpyridin-3-yl)-1-((trimethylsilyl)ethynyl)imidazo[1,5-c]pyrimidin-5-amine], for which the results for the IC50 (in experiment [1]; at EED (1-441)-His protein; in experiment [2]) were 8.7 nM, 8.3 nM and 90 nM, respectively.

With `CC(C)Oc1ccc(-c2ncn3c(NCc4c(F)ccc5c4CCO5)ncc(-c4ccc(S(C)(=O)=O)cc4)c23)cc1` [Example 117, N-((5-fluoro-2,3-dihydrobenzofuran-4-yl)methyl)-1-(4-isopropoxyphenyl)-8-(4-(methylsulfonyl)phenyl)imidazo[1,5-c]pyrimidin-5-amine], the IC50 in experiment [1] (setting [3]) is 19.5 nM; at EED (1-441)-His protein, 11.4 nM; in experiment [2], 58.5 nM.

`CS(=O)(=O)c1ccc(-c2cnc(NCc3c(F)ccc4c3CCO4)n3cnc(-c4ncco4)c23)cc1` [Example 118, N-((5-fluoro-2,3-dihydrobenzofuran-4-yl)methyl)-8-(4-(methylsulfonyl)phenyl)-1-(oxazol-2-yl)imidazo[1,5-c]pyrimidin-5-amine]: the concentration for half-maximal inhibition (IC50) amounted to 5.5 nM in experiment [1] (setting [3]), 4.8 nM on EED (1-441)-His protein and 2.6 nM in experiment [2].

Turning to `N#Cc1ncn2c(NCc3c(F)ccc4c3CCO4)ncc(-n3ccnc3)c12` [Example 119, 5-(((5-fluoro-2,3-dihydrobenzofuran-4-yl)methyl)amino)-8-(1H-imidazol-1-yl)imidazo[1,5-c]pyrimidine-1-carbonitrile], the IC50 came to 44.7 nM in experiment [1] (setting [3]), 18.1 nM at EED (1-441)-His protein and 18.8 nM in experiment [2].

As for `Cc1ncccc1-c1cnc(NCc2c(F)ccc3c2CCO3)n2cnc(CO)c12` [Example 120, (5-(((5-fluoro-2,3-dihydrobenzofuran-4-yl)methyl)amino)-8-(2-methylpyridin-3-yl)imidazo[1,5-c]pyrimidin-1-yl)methanol], the IC50 was found to be 24.1 nM in experiment [1] (setting [3]), 11.4 nM on EED (1-441)-His protein and 15.6 nM in experiment [2].

(Values after patent publication US10676479B2, “Imidazolepyridine compounds and uses thereof” (Novartis AG, priority 2016, dated 2020).)
